The values below come from PubChem BioAssay (NCI).

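Briefly, cells in 96-well plates were exposed to five compound concentrations for 48 h, and endpoints were estimated by linear interpolation. GI50 is the concentration that inhibits growth by half. TGI: concentration producing complete growth inhibition.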 Bounds are passed on as bounds.

Some test systems named below: MALME-3M melanoma; SN12C renal; UACC-257 melanoma; NCI-H226 lung; BT-549 breast; RPMI-8226 leukemia; TK-10 renal; MDA-N; RXF 393 renal.
Experiment in all cases: NCI anticancer screen, dose series, 48 h

Turning to `S=C1NNC2(C(=S)N1)c1ccccc1-c1ccccc12`, the TGI in the experiment on MALME-3M melanoma, in the experiment on SN12C renal, in the experiment on UACC-257 melanoma, with NCI-H226 lung, with BT-549 breast and in the experiment on RPMI-8226 leukemia was greater than 10 µM throughout. The TGI in the experiment with TK-10 renal is greater than 10 µM.

For `C=C(C)COc1cc(NC(=S)OC(C)C)ccc1Cl`, the TGI was 30.6 µM in the experiment with SN12C renal; 31.5 µM in the experiment with MDA-N; 31.8 µM in the experiment with UACC-257 melanoma; 32.7 µM in the experiment on NCI-H226 lung; 24.3 µM with BT-549 breast; 54.1 µM in the experiment on RPMI-8226 leukemia. In the experiment on TK-10 renal, this compound came in with a TGI of 29.3 µM.

Regarding `COc1cc(N(CCCl)CCCl)ccc1/C=N\NC(=O)c1cccnc1`, the GI50 in the experiment on MALME-3M melanoma is 38.3 µM; in the experiment on SN12C renal, 30 µM; in the experiment with UACC-257 melanoma, 15.3 µM; in the experiment on NCI-H226 lung it was 1.72 µM; in the experiment with BT-549 breast it was 20.9 µM; with RPMI-8226 leukemia, 30.9 µM. Moreover, the GI50 was 24.1 µM in the experiment with RXF 393 renal and 16.9 µM with TK-10 renal. Also, the TGI in the experiment on MALME-3M melanoma is greater than 100 µM; in the experiment on SN12C renal, greater than 100 µM; in the experiment with UACC-257 melanoma, 63.3 µM; with NCI-H226 lung, 9.47 µM; in the experiment on BT-549 breast, 89.5 µM; with RPMI-8226 leukemia, greater than 100 µM. Further, the TGI in the experiment with RXF 393 renal is 78.5 µM; in the experiment with TK-10 renal, 53.5 µM.

Regarding `CC(C)=CCc1cc(/C=C/C(=O)O)cc(CC=C(C)C)c1O`, the TGI in the experiment with SN12C renal, in the experiment with MDA-N, in the experiment on UACC-257 melanoma, with BT-549 breast, in the experiment on RPMI-8226 leukemia and in the experiment with TK-10 renal was greater than 100 µM throughout.

Take `CC(=O)OCC1OC(O[C@H]2C=C[C@@H](C(=O)OCc3ccccc3)n3c(=O)n(-c4ccccc4)c(=O)n32)C(OC(C)=O)C(OC(C)=O)C1OC(C)=O` (some centres not stated): the TGI in the experiment with SN12C renal amounted to 3.88 µM; in the experiment on MDA-N, 7.1 µM; in the experiment with UACC-257 melanoma, 3.73 µM; with NCI-H226 lung it was 12.5 µM; with BT-549 breast, 3.29 µM; in the experiment with RPMI-8226 leukemia, 3.31 µM. The results for the TGI in the experiment on RXF 393 renal and with TK-10 renal were 4.07 µM and 3.92 µM, respectively.

With `O=c1c2cc([N+](=O)[O-])ccc2n2n1CCCCC2`, the TGI in the experiment with MALME-3M melanoma, in the experiment with SN12C renal, in the experiment with MDA-N, in the experiment with UACC-257 melanoma, with NCI-H226 lung and in the experiment with RPMI-8226 leukemia was greater than 100 µM each time. Further, the TGI in the experiment with RXF 393 renal and in the experiment on TK-10 renal was greater than 100 µM each time.

With `c1ccc2c(c1)-c1ccccc1C2NC1=NCCO1`, the TGI in the experiment with MALME-3M melanoma was 27 µM; in the experiment on SN12C renal, greater than 100 µM; in the experiment with MDA-N, 24 µM; in the experiment on NCI-H226 lung it was 56.3 µM; in the experiment on RPMI-8226 leukemia, 91.9 µM; with RXF 393 renal, greater than 100 µM. The TGI in the experiment with TK-10 renal worked out at 83.6 µM.

With `CCCCCCCCCCCCc1ccsc1-c1ccc(-c2ccc(-c3sccc3CCCCCCCCCCCC)s2)s1`, the TGI in the experiment on SN12C renal, with MDA-N, with UACC-257 melanoma, in the experiment with NCI-H226 lung, with BT-549 breast and with RPMI-8226 leukemia was greater than 100 µM each time. The TGI with RXF 393 renal and with TK-10 renal was greater than 100 µM throughout.

`Cc1cc(N=Cc2c(CO)cnc(C)c2O)c(N=Cc2c(CO)cnc(C)c2O)cc1C`: the TGI in the experiment with MALME-3M melanoma, with SN12C renal, in the experiment with MDA-N, with UACC-257 melanoma, in the experiment on NCI-H226 lung and with RPMI-8226 leukemia was greater than 100 µM throughout. In addition, the TGI with RXF 393 renal and in the experiment with TK-10 renal was greater than 100 µM throughout. Also, the GI50 in the experiment with RPMI-8226 leukemia was 26.1 µM.

Regarding `N=c1oc2cc(O)ccc2cc1C(=O)Nc1cccc2ccccc12`, the TGI with MALME-3M melanoma was 15.5 µM; with SN12C renal, 18.9 µM; with UACC-257 melanoma, 41.2 µM; with NCI-H226 lung, 16.6 µM; in the experiment on BT-549 breast, 11.5 µM; in the experiment on RPMI-8226 leukemia, greater than 100 µM. Further, the TGI with RXF 393 renal worked out at 18.7 µM; in the experiment with TK-10 renal, 7.68 µM.

Turning to `CN(/N=C/C=N/N(C)C1=NCCN1)C1=NCCN1`, the TGI with MALME-3M melanoma, in the experiment on SN12C renal, in the experiment with MDA-N, in the experiment with UACC-257 melanoma, with NCI-H226 lung and with BT-549 breast was greater than 100 µM in each case. Also, the TGI in the experiment with TK-10 renal is greater than 100 µM.

Take `Cc1cccc(-c2nc(-c3cnccn3)n(Cc3ccccc3)n2)c1`: the TGI in the experiment on SN12C renal was greater than 100 µM; with MDA-N, greater than 100 µM; in the experiment with UACC-257 melanoma, greater than 100 µM; with BT-549 breast, greater than 100 µM; in the experiment with RPMI-8226 leukemia, greater than 100 µM; in the experiment on RXF 393 renal it was 94.1 µM.

`C=C(C)[C@H]1CC(=O)[C@@]2(C)C[C@H]3O[C@]3(C)CC/C=C(\C)CC[C@H]12`: the TGI is greater than 100 µM in the experiment on MALME-3M melanoma; 54.9 µM with SN12C renal; greater than 100 µM in the experiment with MDA-N; 55.8 µM in the experiment on UACC-257 melanoma; greater than 100 µM in the experiment on NCI-H226 lung; 91.9 µM with RPMI-8226 leukemia. Further, the TGI in the experiment on RXF 393 renal turned out to be 74.1 µM; with TK-10 renal it was 71.1 µM.

Turning to `O=C(O)c1ccc(Nc2cnc3cc(C(F)(F)F)ccc3n2)cc1`, the TGI with MALME-3M melanoma, with SN12C renal, in the experiment with MDA-N, with UACC-257 melanoma, in the experiment on NCI-H226 lung and in the experiment on RPMI-8226 leukemia was greater than 100 µM in each case. For the same compound, the TGI in the experiment with RXF 393 renal and in the experiment with TK-10 renal was greater than 100 µM each time.

Consider `CCCCCCc1cc2cc(C(=O)Nc3cccc(F)c3)c(=N)oc2cc1O`, for which the TGI in the experiment with MALME-3M melanoma was 8.75 µM; with MDA-N, 11.8 µM; in the experiment with UACC-257 melanoma, 11.9 µM; with BT-549 breast, 6.19 µM; in the experiment with RPMI-8226 leukemia it was 9.4 µM.

For the compound `Cc1ccc(-c2cc(=O)c(=O)[nH][nH]2)cc1`, the TGI in the experiment with SN12C renal, with MDA-N, in the experiment on UACC-257 melanoma, in the experiment on NCI-H226 lung, with BT-549 breast and in the experiment on RXF 393 renal was greater than 100 µM in each case. Besides, the TGI with TK-10 renal is greater than 100 µM.

With `O=C(CC(=O)N1N=C(N(c2ccccc2)c2ccccc2)CC1c1ccccc1)Nc1cccc(Cl)c1` (configuration not stated), the TGI in the experiment with SN12C renal, with UACC-257 melanoma, in the experiment on NCI-H226 lung, in the experiment on BT-549 breast, in the experiment with RPMI-8226 leukemia and in the experiment on RXF 393 renal was greater than 100 µM throughout. Besides, the TGI in the experiment on TK-10 renal is greater than 100 µM.
